According to patent publication EP4603105A1, “PHARMACEUTICAL COMPOSITION CONTAINING CYCLIC COMPOUND HAVING SELECTIVE KRAS INHIBITORY EFFECT AGAINST HRAS AND NRAS” (CHUGAI SEIYAKU KABUSHIKI KAISHA, priority 2022, dated 2024):

Legend:
HRAS wild-type protein = HRAS wild-type protein (Homo sapiens, UniProt P01112); assay: Binding to HRAS by surface plasmon resonance (SPR), KD and KD ratio to KRAS; settings: ratio of KD for HRAS wild-type protein to KD for KRAS
Procedure, shortened: (§1)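 SPR, 30°C: Avi-biotin RAS·GDP captured via Biotin CAPture (~100–300 RU); running buffer HBS pH 7.4, 1 mM DTT, 10 mM MgCl2, 0.01% Tween 20, 10 µM GDP, 4% DMSO. Single-cycle kinetics, 100 µL/min, 75 s injections; 1:1 model → KD.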

[1] = target: GDP-bound NRAS wild-type protein (Homo sapiens, UniProt P01111); assay: Binding to NRAS by surface plasmon resonance (SPR), KD and KD ratio to KRAS; settings: ratio of KD for GDP-bound NRAS wild-type protein to KD for KRAS
Procedure, shortened: as §1

[2] = system: human lung cancer strain NCI-H441; type: cell-based
Procedure, shortened: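 Proliferation was scored by […] measured after the reagent was added to cultures kept at 37°C in 5% carbon dioxide.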

[3] = system: human ovarian cancer strain OV7; type: cell-based
Procedure, shortened: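 OV7 cells, 250 per well, in DMEM/Ham's F-12 with 5% FBS, 0.5 µg/mL hydrocortisone and 10 µg/mL insulin, grown 7 days at 37°C with serially diluted compound. Viability by CellTiter-Glo luminescence.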

[4] = system: human colorectal cancer strain GP2d; type: cell-based
Procedure, shortened: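 Cells seeded at 500 cells/well in DMEM with 10% FBS onto serially diluted compound in DMSO, then cultured 7 days at 37°C, 5% CO2. Viability read by CellTiter-Glo luminescence.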

[5] = system: human pancreatic cancer strain KP4; type: cell-based
Procedure, shortened: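 KP4 pancreatic cancer cells seeded at 500 cells/well in DMEM/Ham's F-12 with 10% FBS onto serially diluted compound. Viability read by CellTiter-Glo luminescence.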

[6] = system: human gastric cancer strain GSU; type: cell-based
Procedure, shortened: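 Cells seeded at 200 per well in RPMI-1640 with 10% FBS onto serially diluted compound (DMSO) in U-bottom plates. Viability read by CellTiter-Glo luminescence.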

[7] = system: human bladder cancer strain UM-UC-3; type: cell-based
Procedure, shortened: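 UM-UC-3 human bladder cancer cells were seeded at 250 cells/well onto serially diluted compound in MEM with 10% FBS. Viability was read as CellTiter-Glo luminescence.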

[8] = system: human gastric cancer strain SNU-1; type: cell-based
Procedure, shortened: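 SNU-1 gastric cancer cells, 250 cells/well in RPMI-1640 with 10% FBS, glucose, HEPES and sodium pyruvate, plated onto serially diluted compound in DMSO.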

[9] = target: GDP-bound KRAS wild-type protein (Homo sapiens, UniProt P01116); assay: Binding to KRAS by surface plasmon resonance (SPR), dissociation constant KD
Procedure, shortened: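 Biotinylated GDP-bound RAS was captured at about 100–300 RU. Running buffer: HBS pH 7.4, 10 mM MgCl2, 10 µM GDP, 1 mM DTT, 0.01% Tween 20, 4% DMSO.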

HRAS wild-type protein, sequence (P01112 whole entry): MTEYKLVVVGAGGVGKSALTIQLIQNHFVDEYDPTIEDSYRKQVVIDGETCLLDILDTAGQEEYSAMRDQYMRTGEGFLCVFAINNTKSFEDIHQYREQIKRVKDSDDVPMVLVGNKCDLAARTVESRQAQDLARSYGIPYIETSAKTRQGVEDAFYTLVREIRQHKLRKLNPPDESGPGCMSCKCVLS
GDP-bound KRAS wild-type protein, sequence (P01116 1-188 isoform P01116-2): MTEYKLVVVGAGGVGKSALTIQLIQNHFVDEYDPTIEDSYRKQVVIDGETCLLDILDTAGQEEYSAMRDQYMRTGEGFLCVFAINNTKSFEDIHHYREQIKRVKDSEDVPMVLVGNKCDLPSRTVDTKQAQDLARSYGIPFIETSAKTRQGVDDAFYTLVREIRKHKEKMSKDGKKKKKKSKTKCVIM
GDP-bound NRAS wild-type protein, sequence (P01111 whole entry): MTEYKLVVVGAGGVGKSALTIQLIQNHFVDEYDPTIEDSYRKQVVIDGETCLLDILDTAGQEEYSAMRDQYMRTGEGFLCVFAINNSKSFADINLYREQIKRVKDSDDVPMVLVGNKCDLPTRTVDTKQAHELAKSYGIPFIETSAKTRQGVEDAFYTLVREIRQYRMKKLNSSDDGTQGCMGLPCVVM

| SMILES | HRAS /KRAS (HRAS wild-type protein) | NRAS /KRAS [1] | IC50 [2] [nM] | IC50 [3] [nM] | IC50 [4] [nM] | IC50 [5] [nM] | IC50 [6] [nM] | IC50 [7] [nM] | IC50 [8] [nM] | Kd ([9]; Single Cycle Kinetics) [nM] | Kd ([9]; 1:1 binding model) [nM] |
| --- | --- | --- | --- | --- | --- | --- | --- | --- | --- | --- | --- |
| C#CC[C@H]1C(=O)N[C@@H]([C@@H](C)CC)C(=O)N2CCC[C@H]2C(=O)N(C)[C@H]2C/C=C\CCN(C2=O)[C@@H](Cc2ccc(C)cc2)C(=O)N(C)CC(=O)N[C@@H](CCc2ccc(C(F)(F)F)c(OC)c2)C(=O)N2C[C@H](OCC)C[C@H]2C(=O)N(C)C2(CCC2)C(=O)N(C)[C@@H](C2CCCC2)C(=O)N(C)[C@H](C(=O)N(C)C)CC(=O)N1C [PP3255, (1S,4S,10S,13S,17S,20S,26S,28R,32S,38S,42Z)-20-cyclopentyl-28-ethoxy-32-[2-[3-methoxy-4-(trifluoromethyl)phenyl]ethyl]-N,N,2,14,18,21,24,36-octamethyl-10-[(1S)-1-methylpropyl]-3,9,12,15,19,22,25,31,34,37,45-undecaoxo-13-prop-2-ynyl-38-(p-tolylmethyl)spiro[2,8,11,14,18,21,24,30,33,36,39-undecazatetracyclo[37.5.1.0^4,8.0^26,30]pentatetracont-42-ene-23,1'-cyclobutane]-17-carboxamide] | A (a compound having 10 or more and less than 20 is denoted as A) | A (a compound having 10 or more and less than 20 is denoted as A) | 5.7 | 7.1 | 3.8 | 9.3 | 1.9 | 3.7 | 6.6 | 0.1 | – |
| CCO[C@@H]1C[C@H]2C(=O)N(C)C3(CCC3)C(=O)N(C)[C@@H](C3CCCC3)C(=O)N(C)[C@H](C(=O)N(C)C)CC(=O)N(C)[C@@H](CC(C)C)C(=O)N[C@@H]([C@@H](C)CC)C(=O)N(C)CC(=O)N(C)[C@H]3C/C=C\CCN(C3=O)[C@@H](Cc3ccc(C(F)(F)F)cc3)C(=O)N(C)CC(=O)N[C@@H](CCc3cc(F)c(C(F)(F)F)c(F)c3)C(=O)N2C1 [PP3484, (2S,8S,12R,14S,20S,23S,27S,30S,36S,38Z)-20-cyclopentyl-8-[2-[3,5-difluoro-4-(trifluoromethyl)phenyl]ethyl]-12-ethoxy-27-isobutyl-N,N,4,16,19,22,26,32,35-nonamethyl-30-[(1S)-1-methylpropyl]-3,6,9,15,18,21,25,28,31,34,42-undecaoxo-2-[[4-(trifluoromethyl)phenyl]methyl]spiro[1,4,7,10,16,19,22,26,29,32,35-undecazatricyclo[34.5.1.0^10,14]dotetracont-38-ene-17,1'-cyclobutane]-23-carboxamide] | A (a compound having 10 or more and less than 20 is denoted as A) | A (a compound having 10 or more and less than 20 is denoted as A) | 2.2 | 4.1 | 1.8 | 1.9 | 0.6 | 0.9 | 3.1 | 0.027 | – |
| CCO[C@@H]1C[C@H]2C(=O)NC3(CC(C)(C)C3)C(=O)N(C)[C@@H](C3CCCC3)C(=O)N(C)[C@H](C(=O)N(C)C)CC(=O)N(C)[C@@H]([C@@H](C)OC)C(=O)N[C@@H]([C@@H](C)CC)C(=O)N(C)CC(=O)N(C)[C@H]3C/C=C\CCN(C3=O)[C@@H](Cc3ccc(C(F)(F)F)cc3)C(=O)N(C)CC(=O)N[C@@H](CCc3ccc(C(F)(F)F)c(OC)c3)C(=O)N2C1 [PP3194, (2S,8S,12R,14S,20S,23S,27S,30S,36S,38Z)-20-cyclopentyl-12-ethoxy-27-[(1R)-1-methoxyethyl]-8-[2-[3-methoxy-4-(trifluoromethyl)phenyl]ethyl]-N,N,3',3',4,19,22,26,32,35-decamethyl-30-[(1S)-1-methylpropyl]-3,6,9,15,18,21,25,28,31,34,42-undecaoxo-2-[[4-(trifluoromethyl)phenyl]methyl]spiro[1,4,7,10,16,19,22,26,29,32,35-undecazatricyclo[34.5.1.0^10,14]dotetracont-38-ene-17,1'-cyclobutane]-23-carboxamide] | A (a compound having 10 or more and less than 20 is denoted as A) | A (a compound having 10 or more and less than 20 is denoted as A) | 2.9 | 7.7 | 2.8 | 6.8 | 0.6 | 2.7 | 2.5 | – | 0.041 |
